Among the test systems are A549 NSCLC; BT-549 breast; HL-60(TB) leukemia; HOP-62 NSCLC; HOP-92 NSCLC; K-562 leukemia; OVCAR-3 ovarian; OVCAR-5 ovarian; SF-539 CNS; UACC-62 melanoma.
Holding throughout (assay): NCI anticancer screen, dose series, 48 h

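Grown in 96-well plates, cells were treated for 48 hours with each compound at five concentrations. Insufficient inhibition: endpoint recorded as highest concentration tested. TGI is the concentration that stops growth completely.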 Where a SMILES comes first, the peptide text is derived from it. [ ]: non-standard residue; d: D form. pGlu = O=C1CC[CH](C(=O)O)N1 A value given as a limit tells only on which side of the number the result lay.

With `CNC(=O)c1ccccc1[S+]1c2cccc3cccc(c23)C(=O)N1C` (centres undefined), the TGI in the assay on A549 NSCLC, in the assay with BT-549 breast, in the assay on HL-60(TB) leukemia, in the assay with HOP-62 NSCLC, in the assay with HOP-92 NSCLC and in the assay on K-562 leukemia was above 100 µM throughout. For the same compound, the TGI in the assay on OVCAR-3 ovarian, in the assay on OVCAR-5 ovarian, in the assay with SF-539 CNS and in the assay with UACC-62 melanoma was above 100 µM throughout.

Take `COc1ccc(NCc2cnc3nc(N)nc(N)c3c2C)cc1`: the TGI is above 100 µM in the assay on A549 NSCLC; above 100 µM in the assay on BT-549 breast; above 100 µM in the assay with HL-60(TB) leukemia; above 100 µM in the assay on HOP-62 NSCLC; above 89.5 µM in the assay with HOP-92 NSCLC; above 100 µM with K-562 leukemia. In addition, the TGI with OVCAR-3 ovarian, in the assay with OVCAR-5 ovarian, in the assay on SF-539 CNS and with UACC-62 melanoma was above 100 µM in each case.

Consider `CC(O)c1cc2c(s1)C(=O)c1scc(C(C)O)c1C2=O` (centres undefined), for which the TGI with A549 NSCLC was 3.98 µM; with BT-549 breast it was 0.403 µM; with HL-60(TB) leukemia, above 100 µM; in the assay on HOP-92 NSCLC it was 7.07 µM; in the assay with K-562 leukemia, above 100 µM; with OVCAR-5 ovarian, 3.37 µM. The compound also returned a TGI in the assay with UACC-62 melanoma of 0.587 µM.

Take `COC(=O)c1c(O)ccc2c1c1c(n2Cc2ccccn2)C(=O)c2ccccc2C1=O`: the TGI in the assay on A549 NSCLC is above 100 µM; in the assay with BT-549 breast it was above 100 µM; in the assay with HL-60(TB) leukemia, above 100 µM; with HOP-62 NSCLC, 77.7 µM; in the assay on HOP-92 NSCLC, above 100 µM; in the assay with K-562 leukemia, above 100 µM. Also, the TGI with OVCAR-3 ovarian is 64.8 µM; in the assay with OVCAR-5 ovarian, above 100 µM; with SF-539 CNS it was 42.9 µM; in the assay on UACC-62 melanoma, above 100 µM.

As for `O=c1oc2c/c(=C\c3ccccc3)c(=O)c3cccc1c3-2`, the TGI was above 100 µM with A549 NSCLC; 51.6 µM with BT-549 breast; 71.1 µM in the assay with HL-60(TB) leukemia; 44.1 µM in the assay with HOP-62 NSCLC; 41.6 µM in the assay with HOP-92 NSCLC; 63 µM in the assay with OVCAR-3 ovarian. Besides, the TGI in the assay on OVCAR-5 ovarian is above 100 µM; with SF-539 CNS it was 67.1 µM; in the assay on UACC-62 melanoma, 59.9 µM.

For `COc1ccc(-c2nnc(-c3ccncc3)o2)cc1`, the TGI in the assay with A549 NSCLC, with BT-549 breast, in the assay on HL-60(TB) leukemia, in the assay with HOP-62 NSCLC, with HOP-92 NSCLC and in the assay on K-562 leukemia was above 100 µM in each case. Besides, the TGI in the assay with OVCAR-3 ovarian, in the assay on OVCAR-5 ovarian, in the assay with SF-539 CNS and in the assay on UACC-62 melanoma was above 100 µM each time.

Turning to `COc1cc(/C=c2/c3ccccc3n3c2cc(-c2ccccc2)[n+]3C)cc(OC)c1OC`, the TGI in the assay on A549 NSCLC is above 100 µM; in the assay on BT-549 breast, 11.8 µM; in the assay on HL-60(TB) leukemia it was 7.2 µM; with HOP-62 NSCLC, 19.5 µM; in the assay on HOP-92 NSCLC, 12.3 µM; with K-562 leukemia it was 15.4 µM. The TGI in the assay with OVCAR-3 ovarian is 6.82 µM; in the assay with OVCAR-5 ovarian it was 21.4 µM; in the assay on SF-539 CNS, 8.64 µM; with UACC-62 melanoma it was 10.5 µM.

On to `C=CCCC(On1c(-c2ccc(Cl)cc2)csc1=S)c1ccccc1` (centres undefined), for which the TGI was above 100 µM in the assay on A549 NSCLC; above 100 µM in the assay on BT-549 breast; 53.6 µM in the assay with HL-60(TB) leukemia; above 100 µM in the assay on HOP-62 NSCLC; above 100 µM in the assay with HOP-92 NSCLC; above 100 µM in the assay with K-562 leukemia. Moreover, the TGI in the assay on OVCAR-3 ovarian, in the assay on OVCAR-5 ovarian, in the assay on SF-539 CNS and in the assay on UACC-62 melanoma was above 100 µM in each case.

As for `CN(C)CCNC(=O)c1cccc2[nH]c(-c3ccncc3)nc12`, the TGI in the assay on A549 NSCLC is above 44.9 µM; in the assay on BT-549 breast it was 34.8 µM; with HL-60(TB) leukemia, 4.06 µM; in the assay on HOP-62 NSCLC, 52.8 µM; in the assay with HOP-92 NSCLC, 20.7 µM; in the assay on K-562 leukemia, above 100 µM. In addition, the TGI with OVCAR-3 ovarian was above 46.9 µM; with OVCAR-5 ovarian, 34.1 µM; in the assay on SF-539 CNS, 6.82 µM; in the assay on UACC-62 melanoma it was 10.8 µM.

Take `CC(NC(=O)C(Cc1cnc[nH]1)NC(=O)C1CCC(=O)N1)C(N)=O` (stereo not drawn) ([pGlu]-His-Ala-NH2; configuration not given here): the TGI with A549 NSCLC, in the assay on BT-549 breast, with HL-60(TB) leukemia, in the assay on HOP-62 NSCLC, in the assay on HOP-92 NSCLC and in the assay on K-562 leukemia was above 100 µM in each case. Further, the TGI with OVCAR-3 ovarian, in the assay on OVCAR-5 ovarian and in the assay with UACC-62 melanoma was above 100 µM each time.

Regarding `CC1(C)OCC(COC(=O)NCn2cc(-c3ccccc3)nn2)O1` (centres undefined), the TGI with A549 NSCLC, in the assay on BT-549 breast, in the assay with HL-60(TB) leukemia, in the assay on HOP-62 NSCLC, in the assay on HOP-92 NSCLC and in the assay on K-562 leukemia was above 100 µM throughout. The TGI in the assay with OVCAR-5 ovarian and in the assay with SF-539 CNS was above 100 µM throughout.

Regarding `c1ccc(CCN2CCN=C2Cc2ccccc2)cc1`, the TGI was above 100 µM with A549 NSCLC; above 100 µM in the assay with BT-549 breast; above 100 µM in the assay with HL-60(TB) leukemia; above 100 µM in the assay with HOP-62 NSCLC; 93.8 µM in the assay on HOP-92 NSCLC; above 100 µM in the assay on K-562 leukemia. The TGI in the assay on OVCAR-3 ovarian, in the assay on OVCAR-5 ovarian and in the assay with UACC-62 melanoma was above 100 µM each time.

As to `Cc1c(O)c(=O)ccn1CCc1c[nH]c2ccccc12`, the TGI is above 100 µM in the assay with A549 NSCLC; above 100 µM in the assay on BT-549 breast; 53.3 µM in the assay on HL-60(TB) leukemia; above 100 µM with HOP-62 NSCLC; 46.5 µM with HOP-92 NSCLC; 66.7 µM in the assay with K-562 leukemia. Also, the TGI in the assay on OVCAR-5 ovarian is above 100 µM; with SF-539 CNS, 49.6 µM.

On to `COc1cc([C@@H]2c3cc4c(cc3[C@@H](N=Cc3ccc(C(=O)O[C@@H](C(=O)O[C@H]5C[C@@]6(O)[C@@H](OC(=O)c7ccccc7)[C@@H]7[C@]8(OC(C)=O)CO[C@@H]8C[C@H](O)[C@@]7(C)C(=O)[C@H](OC(C)=O)C(=C5C)C6(C)C)[C@@H](NC(=O)c5ccccc5)c5ccccc5)cc3)[C@H]3COC(=O)[C@H]23)OCO4)cc(OC)c1O`, for which the TGI with A549 NSCLC was above 50 µM; with BT-549 breast, above 11.7 µM; in the assay with HL-60(TB) leukemia, 0.182 µM; with HOP-62 NSCLC it was above 50 µM; in the assay on HOP-92 NSCLC, above 50 µM; with K-562 leukemia, above 50 µM. Moreover, the figures for the TGI in the assay with OVCAR-3 ovarian, in the assay with SF-539 CNS and in the assay with UACC-62 melanoma were 0.164 µM, 1.47 µM and above 50 µM, respectively.
